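How tested: cells in 96-well plates exposed to compound for 48 hours at five concentrations. Abbreviation: GI50, concentration required for 50% inhibition of growth.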 The source made the active and inactive calls. Cut-off read from the data, not from the text of the source: active = GI50 up to about 1.1 µM and inactive = higher.
Experiments:
Experiment in all cases: DTP human tumour cell line panel, 48 h
ACHN = tested on: ACHN
OVCAR-4 = tested on: OVCAR-4
SR = tested on: SR
OVCAR-3 = tested on: OVCAR-3
SF-539 = tested on: SF-539
MOLT-4 = tested on: MOLT-4
OVCAR-5 = tested on: OVCAR-5
786-0 = tested on: 786-0
LOX IMVI = tested on: LOX IMVI
K562 = tested on: K562
SNB-19 = tested on: SNB-19
HT-29 = tested on: HT-29
SK-MEL-2 = tested on: SK-MEL-2
KM12 = tested on: KM12
OVCAR-8 = tested on: OVCAR-8
HOP-62 = tested on: HOP-62
NCI-H522 = tested on: NCI-H522

Measured: GI50

CC12CC(Sc3ccccc3N1)c1ccccc1O2 (stereo unspecified)
inactive: ACHN 16.9 µM | OVCAR-4 17 µM | SR 13.6 µM | OVCAR-3 16.4 µM | SF-539 17.5 µM | MOLT-4 16.6 µM | OVCAR-5 19 µM | 786-0 17.7 µM | LOX IMVI 13.7 µM | K562 14.3 µM | SNB-19 15.2 µM | HT-29 19.7 µM | SK-MEL-2 12.8 µM | KM12 15.3 µM | OVCAR-8 17.9 µM | HOP-62 19.6 µM

COc1cc(C2C(Cl)C(=O)N2NC(=O)c2ccc(N)cc2)cc(Br)c1O (stereo unspecified)
inactive: ACHN 19.2 µM | OVCAR-4 14.8 µM | OVCAR-3 8.38 µM | SF-539 19.5 µM | MOLT-4 4.23 µM | OVCAR-5 19.4 µM | 786-0 13.3 µM | LOX IMVI 2.75 µM | NCI-H522 1.92 µM | K562 10.2 µM | SNB-19 11.7 µM | HT-29 19.8 µM | SK-MEL-2 17 µM | KM12 16 µM | OVCAR-8 28.4 µM | HOP-62 15.1 µM

Cc1cn(C2CC(O)C(CO)O2)c(=O)n2nnnc12 (stereo unspecified)
inactive: OVCAR-4 > 100 µM | SR > 100 µM | OVCAR-3 > 100 µM | SF-539 > 100 µM | MOLT-4 > 100 µM | OVCAR-5 > 100 µM | 786-0 > 100 µM | LOX IMVI > 100 µM | NCI-H522 > 100 µM | K562 > 100 µM | SNB-19 > 100 µM | HT-29 > 100 µM | SK-MEL-2 > 100 µM | KM12 > 100 µM | OVCAR-8 > 100 µM | HOP-62 > 100 µM

CC(=O)O[C@H]1CC[C@@]2(C)C(CC[C@]3(C)C2CC[C@]2(C)Oc4c(C)cc(O)cc4C[C@@H]23)C1(C)C (stereo partly specified)
inactive: ACHN 5.46 µM | OVCAR-4 7.64 µM | SR 2.67 µM | OVCAR-3 11.7 µM | MOLT-4 2.84 µM | OVCAR-5 10.9 µM | 786-0 1.99 µM | LOX IMVI 8.75 µM | NCI-H522 5.46 µM | K562 3.96 µM | SNB-19 4.24 µM | HT-29 11.2 µM | SK-MEL-2 7.52 µM | KM12 6.71 µM | OVCAR-8 8.93 µM | HOP-62 10.8 µM

O=C1Nc2ccccc2C12CCCC2
inactive: ACHN > 100 µM | OVCAR-4 > 100 µM | OVCAR-3 > 100 µM | SF-539 4.24 µM | MOLT-4 > 100 µM | 786-0 > 100 µM | NCI-H522 > 100 µM | K562 > 100 µM | SNB-19 > 100 µM | HT-29 > 100 µM | SK-MEL-2 > 100 µM | KM12 > 100 µM | OVCAR-8 > 100 µM | HOP-62 > 100 µM

COc1c(C)c2c(c(C)c1Cl)Oc1c(C=O)c(O)c(Cl)c(C)c1C(=O)O2
inactive: ACHN 22.4 µM | SR 27.5 µM | OVCAR-3 11.7 µM | SF-539 18.5 µM | MOLT-4 20.6 µM | OVCAR-5 28.1 µM | 786-0 31 µM | LOX IMVI 25.9 µM | NCI-H522 22.7 µM | K562 26.8 µM | HT-29 36.9 µM | KM12 31.8 µM | OVCAR-8 36.7 µM | HOP-62 24.3 µM

O=C(O)COc1ccc2c3c1C(=O)CCC3CO2 (stereo unspecified)
inactive: ACHN > 100 µM | OVCAR-4 > 100 µM | OVCAR-3 > 100 µM | SF-539 > 100 µM | MOLT-4 > 100 µM | OVCAR-5 > 100 µM | 786-0 > 100 µM | LOX IMVI > 100 µM | NCI-H522 > 100 µM | K562 > 100 µM | SNB-19 > 100 µM | HT-29 > 100 µM | SK-MEL-2 > 100 µM | KM12 > 100 µM | OVCAR-8 > 100 µM | HOP-62 > 100 µM

CCOC(=O)C1S/C(=N\c2ccc(OC)c(OC)c2)N=C1C (stereo unspecified)
inactive: ACHN 33.6 µM | OVCAR-4 40.2 µM | OVCAR-3 29.5 µM | SF-539 53.2 µM | OVCAR-5 40.2 µM | 786-0 29.2 µM | LOX IMVI 32.5 µM | NCI-H522 17 µM | K562 36.6 µM | SNB-19 53.5 µM | HT-29 18.8 µM | SK-MEL-2 29.8 µM | KM12 31.3 µM | OVCAR-8 36.6 µM | HOP-62 92 µM

CC(=O)OC1CCn2nnc(COC(=O)NC(C)C)c21 (stereo unspecified)
inactive: ACHN > 100 µM | OVCAR-4 > 100 µM | SR > 100 µM | OVCAR-3 > 100 µM | SF-539 > 100 µM | MOLT-4 > 100 µM | OVCAR-5 > 100 µM | 786-0 > 100 µM | NCI-H522 > 100 µM | K562 > 100 µM | SNB-19 > 100 µM | HT-29 > 100 µM | SK-MEL-2 > 100 µM | KM12 > 100 µM | OVCAR-8 > 100 µM

CC[P+](C)(C)CC
inactive: ACHN > 100 µM | OVCAR-4 > 100 µM | SR > 100 µM | OVCAR-3 > 100 µM | SF-539 > 100 µM | MOLT-4 > 100 µM | OVCAR-5 > 100 µM | 786-0 > 100 µM | LOX IMVI > 100 µM | K562 > 100 µM | SNB-19 > 100 µM | HT-29 > 100 µM | SK-MEL-2 82.8 µM | KM12 > 100 µM | OVCAR-8 > 100 µM | HOP-62 > 100 µM

CCOC(=O)C(=O)Nc1ccccc1C(F)(F)F
inactive: ACHN > 100 µM | OVCAR-4 > 100 µM | SR 2.39 µM | OVCAR-3 > 100 µM | SF-539 > 100 µM | OVCAR-5 > 100 µM | 786-0 > 100 µM | LOX IMVI > 100 µM | SNB-19 > 100 µM | HT-29 > 100 µM | SK-MEL-2 > 100 µM | KM12 > 100 µM | OVCAR-8 > 100 µM | HOP-62 > 100 µM

CC1=C(C(=O)Nc2ccccc2C)C(/C=C/c2ccccc2)C(C(=O)Nc2ccccc2C)=C(C)N1
inactive: ACHN > 100 µM | OVCAR-4 96.4 µM | OVCAR-3 > 100 µM | SF-539 > 100 µM | OVCAR-5 > 100 µM | 786-0 > 100 µM | LOX IMVI 74.8 µM | NCI-H522 67.1 µM | K562 > 100 µM | SNB-19 > 100 µM | HT-29 > 100 µM | SK-MEL-2 > 100 µM | KM12 > 100 µM | OVCAR-8 > 100 µM | HOP-62 > 100 µM

CC(C)=C1CCC(CN2CCCC2)C1=O (stereo unspecified)
inactive: ACHN 18.6 µM | OVCAR-4 17.1 µM | SR 15.8 µM | OVCAR-3 17.4 µM | SF-539 53.7 µM | MOLT-4 21.9 µM | OVCAR-5 94.6 µM | 786-0 16.9 µM | LOX IMVI > 100 µM | K562 21.8 µM | SNB-19 > 100 µM | HT-29 22.8 µM | SK-MEL-2 29.6 µM | KM12 30.2 µM | OVCAR-8 > 100 µM | HOP-62 > 100 µM

C=C1C(=O)O[C@H](c2ccoc2)C[C@@H]1[C@@]1(C)CCCC2(C)C(=O)OCC21 (stereo partly specified)
inactive: ACHN > 100 µM | OVCAR-4 > 100 µM | OVCAR-3 > 100 µM | SF-539 > 100 µM | MOLT-4 > 100 µM | OVCAR-5 > 100 µM | 786-0 > 100 µM | LOX IMVI > 100 µM | NCI-H522 > 100 µM | K562 > 100 µM | SNB-19 > 100 µM | HT-29 > 100 µM | SK-MEL-2 > 100 µM | KM12 > 100 µM | OVCAR-8 > 100 µM | HOP-62 > 100 µM

CN(C)CCC(=O)N1CCc2c([nH]c3ccccc23)C1c1cccnc1 (stereo unspecified)
inactive: ACHN > 100 µM | OVCAR-4 > 100 µM | SR > 100 µM | OVCAR-3 > 100 µM | SF-539 > 100 µM | MOLT-4 > 100 µM | OVCAR-5 > 100 µM | 786-0 > 100 µM | LOX IMVI > 100 µM | NCI-H522 > 100 µM | K562 > 100 µM | SNB-19 > 100 µM | HT-29 > 100 µM | KM12 > 100 µM | OVCAR-8 > 100 µM | HOP-62 > 100 µM

CN1CCN2c3ccccc3CC(C#N)(C#N)C2C1 (stereo unspecified)
inactive: ACHN > 100 µM | OVCAR-4 > 100 µM | OVCAR-3 > 100 µM | SF-539 > 100 µM | MOLT-4 > 100 µM | OVCAR-5 > 100 µM | 786-0 > 100 µM | LOX IMVI > 100 µM | NCI-H522 > 100 µM | K562 > 100 µM | SNB-19 > 100 µM | HT-29 > 100 µM | SK-MEL-2 > 100 µM | KM12 > 100 µM | OVCAR-8 > 100 µM

C[C@H](C(=O)C12CC3CC(CC(C3)C1)C2)[C@H](O)c1ccccc1
inactive: ACHN 33.8 µM | OVCAR-4 44 µM | SR 29.4 µM | OVCAR-3 22.4 µM | SF-539 33.3 µM | MOLT-4 23.9 µM | OVCAR-5 17.5 µM | 786-0 22.8 µM | LOX IMVI 17.5 µM | NCI-H522 22 µM | K562 39.4 µM | SNB-19 61.1 µM | HT-29 18.7 µM | SK-MEL-2 19 µM | KM12 25.5 µM | OVCAR-8 33.5 µM

Cn1c2c(c3ccccc31)CCN(CCCCN1CCc3c(n(C)c4ccccc34)C1=O)C2
inactive: ACHN > 100 µM | OVCAR-4 36.7 µM | OVCAR-3 > 100 µM | SF-539 47.5 µM | MOLT-4 > 100 µM | OVCAR-5 > 100 µM | 786-0 > 100 µM | NCI-H522 > 100 µM | K562 > 100 µM | SNB-19 > 100 µM | HT-29 > 100 µM | SK-MEL-2 > 100 µM | OVCAR-8 > 100 µM | HOP-62 > 100 µM
